The assay concerns the target human 5-HT2C receptor (Homo sapiens, UniProt P28335, I156V/I160V/N158S). Nature of the assay: cell-based.
Sequence of human 5-HT2C receptor (P28335 33-458 I156V/N158S/I160V limits assumed): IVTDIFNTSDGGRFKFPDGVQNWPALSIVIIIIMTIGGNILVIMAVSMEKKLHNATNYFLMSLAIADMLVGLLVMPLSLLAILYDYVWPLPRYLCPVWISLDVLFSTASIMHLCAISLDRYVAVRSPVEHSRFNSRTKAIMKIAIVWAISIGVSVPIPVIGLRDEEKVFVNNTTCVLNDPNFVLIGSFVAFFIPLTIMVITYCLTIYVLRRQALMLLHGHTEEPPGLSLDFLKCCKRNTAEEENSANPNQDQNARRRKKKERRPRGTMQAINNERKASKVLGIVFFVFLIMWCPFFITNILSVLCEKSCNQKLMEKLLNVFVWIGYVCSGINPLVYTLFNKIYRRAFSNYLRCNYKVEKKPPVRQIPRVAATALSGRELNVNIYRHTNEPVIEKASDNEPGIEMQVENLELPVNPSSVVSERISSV
In the case of `c1cc2nc3c(c(N4CCCCCC4)n2n1)CCNCC3` [Example 7.5], the EC50 amounted to 592 nM. In other words, the sub-micromolar range.
Turning to `CC1(C(=O)N2CCC(C(F)(F)F)CC2)CN(c2c3c(nc4ccnn24)CCNCC3)C1` [Example 32.2], the midpoint of the response, the EC50, lay at 8290 nM.
Compound `O=C(NC1CCCC1)C1CN(c2c3c(nc4ccnn24)CCNCC3)C1` [Example 31.18] had a 50% effective concentration (EC50) of 458 nM. Compared with the last compound, the EC50 is about 18-fold lower.
The result for `CC1(C)CC1CNC(=O)C1CN(c2c3c(nc4ccnn24)CCNCC3)C1` (centres unmarked) [Example 37.110] reads 255 nM; that for `O=C(C1CN(c2c3c(nc4ccnn24)CCNCC3)C1)N1Cc2ccccc2C1` [Example 31.44], 113 nM.
The value for `CN1CCc2nc3ccnn3c(N3CC(C(=O)N4CCN(C5CCCCC5)CC4)C3)c2CC1` [Example 36.54] was 97 nM.
As to `O=C(C1CN(c2c3c(nc4ccnn24)CCNCC3)C1)N1CCCC(Cc2ccc(F)cc2)C1` (centres unmarked) [Example 31.101], the EC50 was determined as 62 nM.
For `CC1CNCCc2c1nc1ccnn1c2N1CC(C(=O)N2CCC(C)(C)C2)C1` (centres unmarked) [Example 42, (3,3-Dimethyl-pyrrolidin-1-yl)-[1-(5-methyl-6,7,8,9-tetrahydro-5H-1,4,7,10a-tetraaza-cyclohept[f]inden-10-yl)-azetidin-3-yl]-methanone], the concentration giving a half-maximal response (EC50) is 31 nM.
Take `COc1ccc2ccc(OC3CN(c4c5c(nc6ccnn46)CCNCC5)C3)cc2c1` [Example 35.11]: a half-maximal response (EC50) required 926 nM.
For `C[C@@H]1C[C@H](C)CN(C(=O)C2CN(c3c4c(nc5ccnn35)CCNCC4)C2)C1` [Example 31.180], the EC50 was 36 nM.
In turn, `CC1CN(C(=O)C2CN(c3c4c(nc5c(Br)cnn35)CCNCC4)C2)CC(C)O1` (centres unmarked) [Example 31.140] had a concentration for a half-maximal effect (EC50) of 65 nM. This EC50 is about 1.8-fold higher than that of the compound before.
In the case of `Cc1cnn2c(N3CCCCC3)c3c(nc12)CCNCC3` [Example 27.1], the EC50 was determined as 37 nM.
The value for `O=C(C1CN(c2c3c(nc4ccnn24)CCNCC3)C1)N1CCc2c1ccc(F)c2F` [Example 31.155] was 52 nM; that for `COc1ccc2c(c1)CCN2C(=O)C1CN(c2c3c(nc4c(C)cnn24)CCNCC3)C1` [Example 31.247] was 28 nM.
`c1ccc2c(c1)nc(C1CN(c3c4c(nc5ccnn35)CCNCC4)C1)n2C1CCCC1` [Example 34.29] displayed a concentration giving a half-maximal response (EC50) of 96 nM.
The value for `O=C(C1CN(c2c3c(nc4ccnn24)CCNCC3)C1)N1CCC(c2ccccc2)C1` (centres unmarked) [Example 31.98] was 45 nM; that for `O=C(C1CN(c2c3c(nc4ccnn24)CCNCC3)C1)N1CCN(C2CCCCC2)CC1` [Example 37.38] was 3 nM.
For `COC[C@H]1CCN1c1c2c(nc3ccnn13)CCNCC2` [Example 8.1], the response was half-maximal at 75 nM (EC50).
For the compound `O=C(C1CN(c2c3c(nc4ccnn24)CCNCC3)C1)N1CCCC1c1nccs1` (centres unmarked) [Example 31.52], it took 199 nM to reach a half-maximal effect (EC50).
The result for `O=C(C1CN(c2c3c(nc4ccnn24)CCNCC3)C1)N1CCc2cccc(C(F)(F)F)c2C1` [Example 31.122] reads 33 nM; that for `COc1ccc(CN(C)C(=O)C2CN(c3c4c(nc5ccnn35)CCNCC4)C2)cc1` [Example 31.26], 29 nM; that for `O=C(C1CN(c2c3c(nc4c(Br)cnn24)CCNCC3)C1)N1CCC2(CCCCC2)CC1` [Example 31.132], 254 nM.
The result for `O=C(C1CN(c2c3c(nc4ccnn24)CCNCC3)C1)N1CCCC2CCCCC21` (centres unmarked) [Example 31.127] reads 1280 nM; that for `O=C(C1CN(c2c3c(nc4ccnn24)CCNCC3)C1)N1CCC(c2ccc(Br)cc2)CC1` [Example 31.112], 131 nM.
The result for `O=C(C1CN(c2c3c(nc4ccnn24)CCNCC3)C1)N1CCC(c2cccc(Cl)c2)CC1` [Example 31.111] reads 56 nM; that for `CC(C)C1(O)CCN(C(=O)C2CN(c3c4c(nc5ccnn35)CCN(C)CC4)C2)CC1` [Example 36.26], 191 nM; that for `CC1CNCCc2c1nc1c(Br)cnn1c2N1CCC1` (centres unmarked) [Example 4, 10-Azetidin-1-yl-3-bromo-5-methyl-6,7,8,9-tetrahydro-5H-1,4,7,10a-tetraaza-cyclohepta[f]indene], 679 nM.
`O=C(C1CN(c2c3c(nc4ccnn24)CCNCC3)C1)N1CCC(Cc2ccc(Cl)cc2)C1` (centres unmarked) [Example 31.120] returned an EC50 of 103 nM.
The result for `FC(F)(F)c1cccc(N2CCN(c3c4c(nc5ccnn35)CCNCC4)CC2)c1` [Example 7.3] reads 484 nM; that for `COc1ccc(N(C)C(=O)C2CN(c3c4c(nc5ccnn35)CCNCC4)C2)cc1` [Example 31.31], 2150 nM.
On to `COc1ccc(C2(CNC(=O)C3CN(c4c5c(nc6ccnn46)CCNCC5)C3)CCCCC2)cc1` [Example 31.185], for which the response was half-maximal at 1470 nM (EC50).
For `Brc1cnn2c(N3CCC(c4ccccc4)C3)c3c(nc12)CCNCC3` (centres unmarked) [Example 2.2], the EC50 came out at 56 nM.
The value for `Cc1ccc(OC2CN(c3c4c(nc5ccnn35)CCNCC4)C2)cc1` [Example 35.45] was 129 nM; that for `O=C(C1CN(c2c3c(nc4ccnn24)CCNCC3)C1)N1CCc2cc(F)ccc21` [Example 31.217] was 56 nM.
Consider `Fc1c(Cl)cccc1OCC1CN(c2c3c(nc4ccnn24)CCNCC3)C1` [Example 15.25], for which the EC50 was determined as 212 nM.
The value for `O=C(C1CN(c2c3c(nc4ccnn24)CCNCC3)C1)N1CCCNCC1` [Example 37.6] was 2 nM.
Compound `COC[C@@H]1CCN1c1c2c(nc3ccnn13)CCNCC2` [Example 8, (S)-10-(2-Methoxymethyl-azetidin-1-yl)-6,7,8,9-tetrahydro-5H-1,4,7,10a-tetraaza-cyclohepta[f]indene] gave a concentration for a half-maximal effect (EC50) of 272 nM.
With `COc1ccc(OC2CN(c3c4c(nc5ccnn35)CCNCC4)C2)cc1OC` [Example 35.49], the midpoint of the response, the EC50, lay at 137 nM.
The value for `Fc1cc(Cl)ccc1OC1CN(c2c3c(nc4ccnn24)CCNCC3)C1` [Example 35.22] was 82 nM; that for `CN1CCc2nc3ccnn3c(N3CC(C(=O)NC4CCC(C)(C)CC4)C3)c2CC1` [Example 36.39] was 911 nM; that for `CC(C)C(C)NC(=O)C1CN(c2c3c(nc4ccnn24)CCNCC3)C1` (centres unmarked) [Example 37.77] was 95 nM.
The result for `O=C(C1CN(c2c3c(nc4ccnn24)CCNCC3)C1)N1CCCC(F)C1` (centres unmarked) [Example 31.193] reads 64 nM.
The value for `O=C(C1CN(c2c3c(nc4ccnn24)CCNCC3)C1)N1CCCC(c2ccccc2)(c2ccccc2)C1` [Example 31.221] was 625 nM.
For the compound `CN1CCc2nc3ccnn3c(N3CC(C(=O)N4CCC(N5CCCC5)CC4)C3)c2CC1` [Example 36.8], the concentration giving a half-maximal response (EC50) amounted to 38 nM.
The result for `COc1cc(F)ccc1OCC1CN(c2c3c(nc4ccnn24)CCNCC3)C1` [Example 15.8] reads 6 nM; that for `OCC1CN(c2c3c(nc4ccnn24)CCNCC3)C1` [Example 1.5], 193 nM.
`CC1C=CC(C)N1C(=O)C1CN(c2c3c(nc4ccnn24)CCNCC3)C1` (centres unmarked) [Example 31.192] showed a concentration giving a half-maximal response (EC50) of 359 nM. Compared with the last compound, the EC50 is about 1.9-fold higher.
On to `O=C(NCCN1CCCCC1)C1CN(c2c3c(nc4ccnn24)CCNCC3)C1` [Example 37.81], for which it took 40 nM to reach a half-maximal effect (EC50).
In the case of `CN(C(=O)C1CN(c2c3c(nc4ccnn24)CCNCC3)C1)C1CC1` [Example 31.10], a half-maximal response (EC50) required 1670 nM.
In the case of `NC1CCN(C(=O)C2CN(c3c4c(nc5ccnn35)CCNCC4)C2)C1` (centres unmarked) [Example 37.16], it took 5 nM to reach a half-maximal effect (EC50).
In the case of `CN(C)C(=O)C1CN(c2c3c(nc4ccnn24)CCNCC3)C1` [Example 9, 1-(6,7,8,9-Tetrahydro-5H-1,4,7,10a-tetraaza-cyclohepta[f]inden-10-yl)-azetidine-3-carboxylic acid dimethylamide], a half-maximal response (EC50) required 71 nM. This EC50 is about 14-fold higher than that of the compound before.
The value for `c1cc2nc3c(c(N4CC(OC5CCCC5)C4)n2n1)CCNCC3` [Example 20.5] was 358 nM; that for `O=C(C1CN(c2c3c(nc4c(Br)cnn24)CCNCC3)C1)N1CCC2(CCC2)C1` [Example 31.133] was 60 nM.
The result for `Fc1ccccc1OC1CN(c2c3c(nc4ccnn24)CCNCC3)C1` [Example 1.8] reads 5 nM; that for `O=C(C1CN(c2c3c(nc4ccnn24)CCNCC3)C1)N1CCN(C2CCCC2)CC1` [Example 37.11], 2 nM; that for `CN(CCC1CCCCC1)C(=O)C1CN(c2c3c(nc4ccnn24)CCNCC3)C1` [Example 31.84], 126 nM.
The value for `FC(F)(F)c1cnc(OC2CN(c3c4c(nc5ccnn35)CCNCC4)C2)c(Cl)c1` [Example 20.7] was 424 nM.
Regarding `c1ccc2c(c1)ncn2C1CCN(c2c3c(nc4ccnn24)CCNCC3)CC1` [Example 1.42], the half-maximal effective concentration (EC50) stood at 9600 nM. Compared with the last compound, the EC50 is about 23-fold higher.
The result for `O=C(C1CN(c2c3c(nc4c(Br)cnn24)CCNCC3)C1)N1CCC2(CCCCC2)C1` [Example 31.134] reads 117 nM; that for `O=C(C1CN(c2c3c(nc4ccnn24)CCNCC3)C1)N1CC[C@H](Oc2cccc(Cl)c2)C1` [Example 31.213], 103 nM.
The result for `CC(C)OCCNC(=O)C1CN(c2c3c(nc4ccnn24)CCNCC3)C1` [Example 37.96] reads 111 nM.
The result for `CN(C)CCCNC(=O)C1CN(c2c3c(nc4ccnn24)CCN(C)CC3)C1` [Example 36.53] reads 87 nM.
With `O=C(NCCCC(F)(F)F)C1CN(c2c3c(nc4ccnn24)CCNCC3)C1` [Example 37.66], it took 42 nM to reach a half-maximal effect (EC50).
The value for `CN1CCc2nc3ccnn3c(N3CC(C(=O)N4CC[C@H]5CNC[C@H]54)C3)c2CC1` [Example 36.40] was 283 nM; that for `CC(=O)N(C)C1CCN(C(=O)C2CN(c3c4c(nc5ccnn35)CCNCC4)C2)CC1` [Example 37.30] was 8 nM.
Take `CC(C)c1ccc(OC2CN(c3c4c(nc5ccnn35)CCNCC4)C2)cc1` [Example 35.44]: the half-maximal effective concentration (EC50) worked out at 256 nM. Compared with the last compound, the EC50 is about 32-fold higher.
The value for `O=C(C1CN(c2c3c(nc4c(Br)cnn24)CCNCC3)C1)N1CCc2ccccc2C1` [Example 31.136] was 78 nM.
For the compound `O=C(C1CN(c2c3c(nc4ccnn24)CCNCC3)C1)N1CCC(c2ccccc2F)CC1` [Example 31.113], the concentration for a half-maximal effect (EC50) is 27 nM.
`CN1CCc2nc3ccnn3c(N3CC(C(=O)NCCCN4CC[C@@H](F)C4)C3)c2CC1` [Example 36.32] had a concentration for a half-maximal effect (EC50) of 288 nM.
The result for `CN1CCc2nc3ccnn3c(N3CC(C(=O)N4CCC(F)(F)CC4)C3)c2CC1` [Example 36.23] reads 124 nM; that for `O=C(NC1CCC(F)(F)CC1)C1CN(c2c3c(nc4ccnn24)CCNCC3)C1` [Example 37.47], 126 nM.

These data come from patent US20120165304A1, “6,7,8,9-Tetrahydro-5H-1,4,7,10a-tetraaza-cyclohept[f]indene derivatives, pharmaceutical compositions containing these compounds, their use and processes for preparing them” (BOEHRINGER INGELHEIM INTERNATIONAL GMBH, priority 2008, published 2012).
